Data as given in ChEMBL document CHEMBL1201862, “PubChem BioAssay data set” (2004).
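96-well plates; 48 h exposure; 5 concentrations. Endpoints by linear interpolation between flanking doses. Not reached: highest tested concentration assigned. Here, GI50 denotes the concentration required for 50% inhibition of growth.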 The source made the active and inactive calls. Cut-off read from the data, not from the text of the source: active = GI50 up to about 1.1 µM and inactive = higher.

Assays:
Test in all cases: inhibition of tumour cell growth, NCI panel, 48 h
CCRF-CEM = test system: CCRF-CEM
HCT-116 = test system: HCT-116
HOP-92 = test system: HOP-92
LOX IMVI = test system: LOX IMVI
M14 = test system: M14
NCI-H226 = test system: NCI-H226
OVCAR-4 = test system: OVCAR-4
OVCAR-5 = test system: OVCAR-5
PC-3 = test system: PC-3
SF-268 = test system: SF-268
SF-295 = test system: SF-295
SF-539 = test system: SF-539
SK-MEL-2 = test system: SK-MEL-2
SNB-19 = test system: SNB-19
SNB-75 = test system: SNB-75
SR = test system: SR
SW-620 = test system: SW-620
U-251 = test system: U-251
UACC-257 = test system: UACC-257
UACC-62 = test system: UACC-62

Measured: GI50

Cn1c(=O)c2c(nc(Nc3ccc(Cl)cc3)n3c(=O)n(-c4ccccc4)c(=O)n23)n(C)c1=O
inactive: CCRF-CEM > 100 µM | HCT-116 > 100 µM | HOP-92 > 100 µM | LOX IMVI > 100 µM | M14 > 100 µM | NCI-H226 > 100 µM | OVCAR-4 > 100 µM | OVCAR-5 > 100 µM | PC-3 > 100 µM | SF-268 > 100 µM | SF-295 > 100 µM | SF-539 > 100 µM | SK-MEL-2 > 100 µM | SNB-19 > 100 µM | SNB-75 15.5 µM | SR > 100 µM | SW-620 > 100 µM | U-251 > 100 µM | UACC-257 > 100 µM | UACC-62 > 100 µM

COc1cc(/C=N\O)cc(/C=N/O)c1O
inactive: CCRF-CEM 12.1 µM | HCT-116 33.4 µM | HOP-92 21.1 µM | LOX IMVI 40.9 µM | M14 20 µM | NCI-H226 24.2 µM | OVCAR-4 > 100 µM | OVCAR-5 44.3 µM | PC-3 28.9 µM | SF-268 35.7 µM | SF-295 17.1 µM | SF-539 24.4 µM | SK-MEL-2 25.8 µM | SNB-19 47.6 µM | SNB-75 80.7 µM | SR 26.3 µM | SW-620 73.1 µM | U-251 37.9 µM | UACC-257 74 µM | UACC-62 68.1 µM
